“And” between values parts separate entries of the source, which are not always exact repeats. Equal values may be shown once. Strand notation (5' to 3'): a small letter for the sugar, then the base; units joined by * are phosphorothioate-linked, units joined directly phosphodiester-linked; [ ] holds rarer units or linkages, { } end groups; capitals alone tell only the bases. [ms] = mesyl phosphoramidate linkage; k = constrained ethyl (cEt); [5mC] = 5-methylcytosine; d = 2'-deoxy (DNA)
How the values were obtained:
human APOE RNA [1] = assay: Dose-dependent inhibition of human APOE RNA in HepG2 cells, electroporation, 50,000 cells per well, RT-PCR normalized to GAPDH (Example 4, Tables 8-10); assay type: cell-based; conditions: HepG2, electroporation, 24-hour treatment
Procedure, shortened: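 HepG2 cells, 50,000 per well, electroporated with modified oligonucleotide at various concentrations. APOE RNA quantified by RT-PCR with human primer probe set RTS3073, normalized to GAPDH. Values are percent APOE RNA relative to untreated control cells.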

human APOE RNA [2] = assay: Dose-dependent inhibition of human APOE RNA in differentiated SH-SY5Y cells, free uptake, 5 days (Example 5); assay type: cell-based; conditions: 5 days (Table 14)
Protocol: Modified oligonucleotides selected from the examples above were tested at various doses in differentiated SH-SY5Y cells. The modified oligonucleotides were tested in a series of experiments that had the same culture conditions.
Differentiated SH-SY5Y cells plated at a density of 10,000 cells per well were treated by free uptake with various concentrations of modified oligonucleotide as specified in the tables below. […] APOE RNA levels were measured using the human primer probe set RTS3073 (described herein above). APOE RNA levels were normalized to human PPIA. Human PPIA was amplified using human primer probe set mk_cycloA_2nd (described herein above). Results are presented as percent APOE RNA, relative to the amount of APOE RNA in untreated control cells (% UTC). The half maximal inhibitory concentration (IC50) of each modified oligonucleotide was calculated in GraphPad Prism 10 (GraphPad Software, San Diego, CA) and is also presented in the tables below.

human APOE RNA [3] = assay: Activity in APOE C57BL/6NTac-Apoeem7250 knock-in mice, single ICV bolus, 4 weeks (Example 10); assay type: in vivo; conditions: single ICV bolus 300 μg, 4 weeks post treatment, normalized to mouse Ppia
Procedure, shortened: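 Knock-in mice (2–4 per group) received one 300 μg ICV bolus of oligonucleotide or PBS. After four weeks, human APOE RNA in cortex and spinal cord measured by RT-qPCR (primer probe set RTS3073), normalized to mouse Ppia, expressed as % of PBS controls.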

human APOE RNA [4] = assay: Activity in APOE C57BL/6NTac-Apoeem7250 knock-in mice, single ICV bolus, 8 weeks (Example 11); assay type: in vivo; conditions: single ICV bolus 300 μg, 8 weeks post treatment, normalized to mouse Ppia
Procedure, shortened: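 Human APOE knock-in C57BL/6NTac mice given one ICV bolus of 300 μg oligonucleotide; PBS-dosed group as control. At 8 weeks, cortex and spinal cord RNA measured by qRT-PCR (human probe RTS3073), normalized to mouse Ppia, expressed as % of PBS control.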

human APOE RNA [5] = assay: Duration of action study in APOE C57BL/6NTac-Apoeem7250 knock-in mice (Example 16); assay type: in vivo; conditions: 300 μg ICV
Protocol: Modified oligonucleotides described above were tested in the APOE C57BL/6NTac-Apoeem7250 knock-in mouse model described above.
APOE C57BL/6NTac-Apoeem7250 knock-in mice were divided into groups of 2-4 mice each. Each mouse received a single intracerebroventricular (ICV) bolus of 300 μg of modified oligonucleotide. A group of 2-4 mice received a single ICV bolus with PBS as a negative control.
Mice were sacrificed at various timepoints as indicated in the table below and RNA was extracted from cortical brain tissue and spinal cord for quantitative real-time RT-PCR analysis of RNA expression of APOE using primer probe set RTS3073 (described herein above). APOE RNA levels were normalized to mouse Ppia. Mouse Ppia was amplified using primer probe set m_cyclo24 (described herein above). Results are presented as percent human APOE RNA relative to the amount of human APOE RNA in PBS treated animals, (% control). Each experiment is identified in separate tables below.

Substance	APOE RNA (% UTC) (human APOE RNA [1]; 5 nM)	APOE RNA (% UTC) (human APOE RNA [1]; 13 nM)	APOE RNA (% UTC) (human APOE RNA [1]; 82 nM)	APOE RNA (% UTC) (human APOE RNA [1]; 205 nM)	APOE RNA (% UTC) (human APOE RNA [1]; 512 nM)	APOE RNA (% UTC) (human APOE RNA [1]; 1,280 nM)	APOE RNA (% UTC) (human APOE RNA [1]; 3,200 nM)	APOE RNA (% UTC) (human APOE RNA [1]; 8,000 nM)	APOE RNA (% UTC) (human APOE RNA [1]; 20,000 nM)	IC50 (human APOE RNA [1]) [nM]	APOE RNA (% control) Cortex (human APOE RNA [3])	APOE RNA (% control) Spinal Cord (human APOE RNA [3]) [% control]	APOE RNA (% control) Cortex (human APOE RNA [4]) [% control]	APOE RNA (% control) Spinal Cord (human APOE RNA [4]) [% control]	APOE RNA (% control) Cortex (human APOE RNA [5]; 112 days post-dose) [% control]	APOE RNA (% control) Cortex (human APOE RNA [5]; 140 days post-dose) [% control]	APOE RNA (% control) Spinal Cord (human APOE RNA [5]; 112 days post-dose) [% control]	APOE RNA (% control) Spinal Cord (human APOE RNA [5]; 140 days post-dose) [% control]	APOE RNA (% UTC) (human APOE RNA [1]; 33 nM)	also measured
1746784 (k[5mC]*kT*kT*dG[ms]dG[ms]dT[ms]dG[ms]dA[ms]dA[ms]dT*d[5mC]*dT*dT*dT*dA[ms]dT*kT*kA*dA[ms]kA; antisense) [Compound 1746784]	78	74	80	61	48	29	10	7	7	310	49 % control and 39 % control	26	38	138	38	45	24	56	–	APOE RNA (% UTC) (human APOE RNA [2]; 5 nM): 82 % UTC; APOE RNA (% UTC) (human APOE RNA [2]; 13 nM): 118 % UTC; APOE RNA (% UTC) (human APOE RNA [2]; 33 nM): 83 % UTC; APOE RNA (% UTC) (human APOE RNA [2]; 82 nM): 61 % UTC; APOE RNA (% UTC) (human APOE RNA [2]; 205 nM): 49 % UTC; APOE RNA (% UTC) (human APOE RNA [2]; 512 nM): 62 % UTC; APOE RNA (% UTC) (human APOE RNA [2]; 1,280 nM): 36 % UTC; APOE RNA (% UTC) (human APOE RNA [2]; 3,200 nM): 24 % UTC; APOE RNA (% UTC) (human APOE RNA [2]; 8,000 nM): 13 % UTC; APOE RNA (% UTC) (human APOE RNA [2]; 20,000 nM): 6 % UTC; IC50 (human APOE RNA [2]): 440 nM
1747050 (k[5mC]*kT*kT*dG[ms]dG[ms]kT*dG[ms]dA[ms]dA[ms]dT*d[5mC]*dT*dT*dT*dA[ms]dT*kT*dA[ms]dA[ms]kA; antisense) [Compound 1747050]	182	135	111	110	76	49	31	14	10	1540	29 % control	45	36	23	63	74	93	86	115	–
1746799 (k[5mC]*dT[ms]kT*dG[ms]kG*dT[ms]dG[ms]dA[ms]dA[ms]dT*d[5mC]*dT*dT*dT*dA[ms]dT*kT*dA[ms]kA*kA; antisense) [Compound 1746799]	115	130	125	106	84	52	23	24	33	1740	47 % control	42	45	39	46	70	78	66	153	–
1746800 (k[5mC]*dT[ms]kT*dG[ms]dG[ms]kT*dG[ms]dA[ms]dA[ms]dT*d[5mC]*dT*dT*dT*dA[ms]dT*kT*dA[ms]kA*kA; antisense) [Compound 1746800]	108	111	115	97	77	87	39	35	8	3270	41 % control	40	40	30	52	75	88	58	137	–
1746789 (k[5mC]*dT[ms]kT*dG[ms]kG*dT[ms]dG[ms]dA[ms]dA[ms]dT*d[5mC]*dT*dT*dT*dA[ms]dT*kT*kA*dA[ms]kA; antisense) [Compound 1746789]	98	106	102	76	64	37	19	10	4	830	60 % control	41	–	–	63	75	83	80	84	–
1746810 (k[5mC]*dT[ms]kT*dG[ms]dG[ms]kT*dG[ms]dA[ms]dA[ms]dT*d[5mC]*dT*dT*dT*dA[ms]dT*dT[ms]kA*kA*kA; antisense) [Compound 1746810]	109	106	77	68	46	36	13	8	5	490	56 % control	80	–	–	63	82	80	106	95	–

Reference: US20250353873A1, “COMPOUNDS AND METHODS FOR MODULATING APOE EXPRESSION” (Ionis Pharmaceuticals, Inc., priority 2024, published 2025)
